Assay results taken from ChEMBL document CHEMBL1201862, “PubChem BioAssay data set” (2004).
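96-well plates; 48 h exposure; 5 concentrations. Endpoints by linear interpolation between flanking doses. Not reached: highest tested concentration assigned. At the GI50, growth is halved.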 Calls of active or inactive are those of the source. No stated cut-off is given here; in the data, active = GI50 up to about 1.1 µM and inactive = higher.

Columns and labels:
Test in all cases: DTP human tumour cell line panel, 48 h
T47D = test system: T47D
K562 = test system: K562
CCRF-CEM = test system: CCRF-CEM
Hs-578T = test system: Hs-578T
RXF 393 = test system: RXF 393
HCT-116 = test system: HCT-116
NCI/ADR-RES = test system: NCI/ADR-RES
PC-3 = test system: PC-3
OVCAR-4 = test system: OVCAR-4
SK-MEL-5 = test system: SK-MEL-5
SK-MEL-2 = test system: SK-MEL-2
KM12 = test system: KM12
MCF7 = test system: MCF7
ACHN = test system: ACHN
HOP-62 = test system: HOP-62
SN12C = test system: SN12C
MDA-MB-435 = test system: MDA-MB-435
NCI-H23 = test system: NCI-H23
A498 = test system: A498
SW-620 = test system: SW-620

| SMILES | GI50 (T47D) | GI50 (K562) | GI50 (CCRF-CEM) | GI50 (Hs-578T) | GI50 (RXF 393) | GI50 (HCT-116) | GI50 (NCI/ADR-RES) | GI50 (PC-3) | GI50 (OVCAR-4) | GI50 (SK-MEL-5) | GI50 (SK-MEL-2) | GI50 (KM12) | GI50 (MCF7) | GI50 (ACHN) | GI50 (HOP-62) | GI50 (SN12C) | GI50 (MDA-MB-435) | GI50 (NCI-H23) | GI50 (A498) | GI50 (SW-620) |
| --- | --- | --- | --- | --- | --- | --- | --- | --- | --- | --- | --- | --- | --- | --- | --- | --- | --- | --- | --- | --- |
| CCCCN1CSC(=S)N(Cc2ccccc2)C1 | 34.8 µM (inactive) | 31.8 µM (inactive) | 4.47 µM (inactive) | > 70.3 µM (inactive) | 48 µM (inactive) | 35.4 µM (inactive) | 54.3 µM (inactive) | 63.5 µM (inactive) | 56.8 µM (inactive) | 23.4 µM (inactive) | > 59.3 µM (inactive) | 31.1 µM (inactive) | 31.3 µM (inactive) | > 100 µM (inactive) | > 100 µM (inactive) | > 71 µM (inactive) | 38.2 µM (inactive) | 42.6 µM (inactive) | > 62.1 µM (inactive) | 37.8 µM (inactive) |
| NC(=O)NNCc1ccccc1 | > 100 µM (inactive) | > 100 µM (inactive) | > 100 µM (inactive) | > 100 µM (inactive) | > 100 µM (inactive) | > 100 µM (inactive) | > 100 µM (inactive) | > 100 µM (inactive) | > 100 µM (inactive) | > 100 µM (inactive) | > 100 µM (inactive) | > 100 µM (inactive) | > 100 µM (inactive) | > 100 µM (inactive) | > 100 µM (inactive) | > 100 µM (inactive) | > 100 µM (inactive) | > 100 µM (inactive) | > 100 µM (inactive) | > 100 µM (inactive) |
| Cc1nc2[nH]ncn2c(=O)c1CCO | > 10 µM (inactive) | > 10 µM (inactive) | > 10 µM (inactive) | > 10 µM (inactive) | > 10 µM (inactive) | > 10 µM (inactive) | > 10 µM (inactive) | > 10 µM (inactive) | > 10 µM (inactive) | > 10 µM (inactive) | > 10 µM (inactive) |  | > 10 µM (inactive) | > 10 µM (inactive) | > 10 µM (inactive) | > 10 µM (inactive) | > 10 µM (inactive) | > 10 µM (inactive) | > 10 µM (inactive) | > 10 µM (inactive) |
| CN(NC(=O)c1cccs1)C1=NCCCN1 | > 100 µM (inactive) | > 100 µM (inactive) | > 100 µM (inactive) | > 100 µM (inactive) | > 100 µM (inactive) | > 100 µM (inactive) | > 100 µM (inactive) | > 100 µM (inactive) | > 100 µM (inactive) | > 100 µM (inactive) | > 100 µM (inactive) | > 100 µM (inactive) | > 100 µM (inactive) | > 100 µM (inactive) | > 100 µM (inactive) |  | > 100 µM (inactive) | > 100 µM (inactive) | > 100 µM (inactive) | > 100 µM (inactive) |
| O=c1[nH]c(=O)n(C/C=C/CBr)nc1Br | 12.6 µM (inactive) | 15.8 µM (inactive) | 7.74 µM (inactive) | 19 µM (inactive) | 12 µM (inactive) | 13 µM (inactive) | 17.6 µM (inactive) | 12.2 µM (inactive) | 10.4 µM (inactive) | 13.2 µM (inactive) | 12.6 µM (inactive) | 14.9 µM (inactive) | 10.1 µM (inactive) | 13 µM (inactive) | 21.9 µM (inactive) | 14.8 µM (inactive) | 13.6 µM (inactive) | 12.6 µM (inactive) | 13.5 µM (inactive) | 14.4 µM (inactive) |
| COc1ccc(CC2CCc3nc(N)nc(N)c3C2)cc1OC (stereo unspecified) | 18.9 µM (inactive) | 18.3 µM (inactive) |  | > 56.1 µM (inactive) | 0.0292 µM (active) | 0.0349 µM (active) | 1.29 µM (inactive) | 0.0716 µM (active) | > 43.3 µM (inactive) | 0.4 µM (active) | > 57.3 µM (inactive) | 1.28 µM (inactive) | 1.15 µM (inactive) | 0.16 µM (active) | 13.7 µM (inactive) | 22.9 µM (inactive) | 1.41 µM (inactive) | 0.564 µM (active) | 17.3 µM (inactive) | 6.03 µM (inactive) |
| CC(=O)/N=C1/N(/C=C2\C(=O)Oc3ccccc3C2=O)C(=O)/C(=C/c2ccc(NC(C)=O)cc2)N1C | > 100 µM (inactive) | > 100 µM (inactive) | > 100 µM (inactive) | 44.4 µM (inactive) | > 100 µM (inactive) | > 100 µM (inactive) | > 100 µM (inactive) | > 100 µM (inactive) | > 100 µM (inactive) | > 100 µM (inactive) | > 100 µM (inactive) | > 100 µM (inactive) | > 100 µM (inactive) | > 100 µM (inactive) | > 100 µM (inactive) | > 100 µM (inactive) | > 100 µM (inactive) | > 100 µM (inactive) | > 100 µM (inactive) | > 100 µM (inactive) |
| CC(=O)N(C(C)=O)n1nc2c(n1)C(=O)c1ccccc1C2=O | > 100 µM (inactive) |  | > 100 µM (inactive) | > 100 µM (inactive) | > 100 µM (inactive) | > 100 µM (inactive) | > 100 µM (inactive) | > 100 µM (inactive) | > 100 µM (inactive) | > 100 µM (inactive) | > 100 µM (inactive) | > 100 µM (inactive) | > 100 µM (inactive) | > 100 µM (inactive) | > 100 µM (inactive) | > 100 µM (inactive) | > 100 µM (inactive) | > 100 µM (inactive) | > 100 µM (inactive) | > 100 µM (inactive) |
| COc1cccc(/C=C/C(=O)N2CC(CCl)c3c2cc(N)c2ccccc32)c1 (stereo unspecified) | 0.0034 µM (active) | < 0.01 µM (active) | < 0.01 µM (active) | 0.00968 µM (active) | 0.00132 µM (active) | 0.00109 µM (active) | 0.0731 µM (active) | 0.00284 µM (active) | 0.00344 µM (active) | < 0.01 µM (active) | 0.00834 µM (active) | 0.00434 µM (active) | 0.000238 µM (active) | 0.000264 µM (active) | < 0.01 µM (active) | 0.00357 µM (active) | 0.00319 µM (active) | 0.00065 µM (active) | 0.00665 µM (active) | 0.00194 µM (active) |
